In patent publication US10167262B2, “Herbicidal substituted 3-arylpyrazoles” (FMC CORPORATION, priority 2014, dated 2019):

Legend:
Format in all cases: in vivo
[1] = tested on: ducksalad (Heteranthera limosa); assay: Test B flooded paddy test, plant response rating 0-100; settings: Flood, 250 g ai/ha; scale 0 to 100 (0 no effect, 100 complete control); 13 to 15 days
In short: (§1)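 In-water treatment: compound dosed into 3 cm flood over soil, water level unchanged throughout. Controls run alongside; visual assessment at day 13–15.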

rice (Oryza sativa) = assay: as above; settings: Flood, 250 g ai/ha; scale 0 to 100 (0 no effect, 100 complete control); 13 to 15 days
In short: as §1

[2] = tested on: sedge, umbrella (small-flower umbrella sedge, Cyperus difformis); assay: as above; settings: Flood, 250 g ai/ha; scale 0 to 100 (0 no effect, 100 complete control); 13 to 15 days
In short: as §1

[3] = tested on: bermudagrass (Cynodon dactylon); assay: Test C postemergence greenhouse test, plant response rating 0-100; settings: for Plant response rating, Bermudagrass: scale 0 to 100
In short: (§2)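 First, plants were raised in a sphagnum peat, vermiculite and nutrient medium to 1–4 leaves. Next, formulated test compounds were applied over the foliage. Finally, after 13–15 greenhouse days, injury was compared with controls and scored 0–100.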

[4] = tested on: canarygrass (Phalaris minor); assay: as above; settings: for Plant response rating, Canarygrass: scale 0 to 100
In short: as §2

[5] = tested on: cocklebur (common cocklebur, Xanthium strumarium); assay: as above; settings: for Plant response rating, Cocklebur: scale 0 to 100
In short: as §2

[6] = tested on: deadnettle (henbit deadnettle, Lamium amplexicaule); assay: as above; settings: for Plant response rating, Deadnettle: scale 0 to 100
In short: as §2

[7] = tested on: downy bromegrass (Bromus tectorum); assay: as above; settings: for Plant response rating, Bromegrass, Downy: scale 0 to 100
In short: as §2

[8] = tested on: goosegrass (Eleusine indica); assay: as above; settings: for Plant response rating, Goosegrass: scale 0 to 100
In short: as §2

[9] = tested on: green foxtail (Setaria viridis); assay: as above; settings: for Plant response rating, Foxtail, Green: scale 0 to 100
In short: as §2

[10] = tested on: surinam grass (Brachiaria decumbens); assay: as above; settings: for Plant response rating, Surinam Grass: scale 0 to 100
In short: as §2

[11] = tested on: windgrass (Apera spica-venti); assay: as above; settings: for Plant response rating, Windgrass: scale 0 to 100
In short: as §2

[12] = tested on: winter barley (Hordeum vulgare); assay: as above; settings: for Plant response rating, Barley: scale 0 to 100
In short: as §2

[13] = tested on: woolly cupgrass (Eriochloa villosa); assay: as above; settings: for Plant response rating, Cupgrass, Woolly: scale 0 to 100
In short: as §2

With `Fc1ccccc1NN=C(c1ccccc1)c1c[nH]nc1-c1cc(Cl)cc(Cl)c1` [Compound 57] the “Plant response rating, Ducksalad” value [1] was 0, the “Plant response rating, Rice” value (rice (Oryza sativa)) was 0 and the “Plant response rating, Sedge, Umbrella” value [2] was 75. For the same molecule, the “Plant response rating (0 to 100), Bermudagrass” value ([3]; 31 g ai/ha) was 0, the “Plant response rating (0 to 100), Bermudagrass” value ([3]; 62 g ai/ha) was 0 and the “Plant response rating (0 to 100), Bermudagrass” value ([3]; 125 g ai/ha) was 0. The “Plant response rating, Bermudagrass” value ([3]; 250 g ai/ha) was 5, the “Plant response rating (0 to 100), Canarygrass” value ([4]; 31 g ai/ha) was 0 and the “Plant response rating (0 to 100), Canarygrass” value ([4]; 62 g ai/ha) was 0. The “Plant response rating (0 to 100), Canarygrass” value ([4]; 125 g ai/ha) was 0, the “Plant response rating, Canarygrass” value ([4]; 250 g ai/ha) was 0 and the “Plant response rating (0 to 100), Cocklebur” value ([5]; 31 g ai/ha) was 10. For the same molecule, the “Plant response rating (0 to 100), Cocklebur” value ([5]; 62 g ai/ha) was 70, the “Plant response rating (0 to 100), Cocklebur” value ([5]; 125 g ai/ha) was 70 and the “Plant response rating, Cocklebur” value ([5]; 250 g ai/ha) was 70. The “Plant response rating (0 to 100), Deadnettle” value ([6]; 31 g ai/ha) was 0, the “Plant response rating (0 to 100), Deadnettle” value ([6]; 62 g ai/ha) was 0 and the “Plant response rating (0 to 100), Deadnettle” value ([6]; 125 g ai/ha) was 0. The “Plant response rating, Deadnettle” value ([6]; 250 g ai/ha) was 0, the “Plant response rating (0 to 100), Bromegrass, Downy” value ([7]; 31 g ai/ha) was 0 and the “Plant response rating (0 to 100), Bromegrass, Downy” value ([7]; 62 g ai/ha) was 0. For the same molecule, the “Plant response rating (0 to 100), Bromegrass, Downy” value ([7]; 125 g ai/ha) was 0, the “Plant response rating, Bromegrass, Downy” value ([7]; 250 g ai/ha) was 0 and the “Plant response rating (0 to 100), Goosegrass” value ([8]; 31 g ai/ha) was 0. For the same molecule, the “Plant response rating (0 to 100), Goosegrass” value ([8]; 62 g ai/ha) was 0, the “Plant response rating (0 to 100), Goosegrass” value ([8]; 125 g ai/ha) was 0 and the “Plant response rating, Goosegrass” value ([8]; 250 g ai/ha) was 0. For the same molecule, the “Plant response rating (0 to 100), Foxtail, Green” value ([9]; 31 g ai/ha) was 0, the “Plant response rating (0 to 100), Foxtail, Green” value ([9]; 62 g ai/ha) was 0 and the “Plant response rating (0 to 100), Foxtail, Green” value ([9]; 125 g ai/ha) was 0. The “Plant response rating, Foxtail, Green” value ([9]; 250 g ai/ha) was 0, the “Plant response rating (0 to 100), Surinam Grass” value ([10]; 62 g ai/ha) was 0 and the “Plant response rating (0 to 100), Surinam Grass” value ([10]; 125 g ai/ha) was 0. The “Plant response rating, Surinam Grass” value ([10]; 250 g ai/ha) was 0, the “Plant response rating (0 to 100), Windgrass” value ([11]; 62 g ai/ha) was 0 and the “Plant response rating (0 to 100), Windgrass” value ([11]; 125 g ai/ha) was 0. For the same molecule, the “Plant response rating, Windgrass” value ([11]; 250 g ai/ha) was 0, the “Plant response rating (0 to 100), Barley” value ([12]; 31 g ai/ha) was 0 and the “Plant response rating (0 to 100), Barley” value ([12]; 62 g ai/ha) was 0. For the same molecule, the “Plant response rating (0 to 100), Barley” value ([12]; 125 g ai/ha) was 0, the “Plant response rating, Barley” value ([12]; 250 g ai/ha) was 0 and the “Plant response rating (0 to 100), Cupgrass, Woolly” value ([13]; 31 g ai/ha) was 0. For the same molecule, the “Plant response rating (0 to 100), Cupgrass, Woolly” value ([13]; 62 g ai/ha) was 0, the “Plant response rating (0 to 100), Cupgrass, Woolly” value ([13]; 125 g ai/ha) was 5 and the “Plant response rating, Cupgrass, Woolly” value ([13]; 250 g ai/ha) was 5.
`Fc1cccc(NN=C(c2ccccc2)c2c[nH]nc2-c2cc(Cl)cc(Cl)c2)c1` [Compound 58] was tested, and the “Plant response rating, Ducksalad” value [1] was 0, the “Plant response rating, Rice” value (rice (Oryza sativa)) was 0 and the “Plant response rating, Sedge, Umbrella” value [2] was 0. For the same molecule, the “Plant response rating (0 to 100), Bermudagrass” value ([3]; 62 g ai/ha) was 0, the “Plant response rating (0 to 100), Bermudagrass” value ([3]; 125 g ai/ha) was 0 and the “Plant response rating, Bermudagrass” value ([3]; 250 g ai/ha) was 0. For the same molecule, the “Plant response rating, Bermudagrass” value ([3]; 500 g ai/ha) was 10, the “Plant response rating (0 to 100), Canarygrass” value ([4]; 62 g ai/ha) was 0 and the “Plant response rating (0 to 100), Canarygrass” value ([4]; 125 g ai/ha) was 0. For the same molecule, the “Plant response rating, Canarygrass” value ([4]; 250 g ai/ha) was 0, the “Plant response rating, Canarygrass” value ([4]; 500 g ai/ha) was 0 and the “Plant response rating (0 to 100), Cocklebur” value ([5]; 62 g ai/ha) was 60. The “Plant response rating (0 to 100), Cocklebur” value ([5]; 125 g ai/ha) was 75, the “Plant response rating, Cocklebur” value ([5]; 250 g ai/ha) was 80 and the “Plant response rating, Cocklebur” value ([5]; 500 g ai/ha) was 95. The “Plant response rating (0 to 100), Deadnettle” value ([6]; 62 g ai/ha) was 0, the “Plant response rating (0 to 100), Deadnettle” value ([6]; 125 g ai/ha) was 0 and the “Plant response rating, Deadnettle” value ([6]; 250 g ai/ha) was 0. The “Plant response rating, Deadnettle” value ([6]; 500 g ai/ha) was 0, the “Plant response rating (0 to 100), Bromegrass, Downy” value ([7]; 62 g ai/ha) was 0 and the “Plant response rating (0 to 100), Bromegrass, Downy” value ([7]; 125 g ai/ha) was 0. The “Plant response rating, Bromegrass, Downy” value ([7]; 250 g ai/ha) was 0, the “Plant response rating, Bromegrass, Downy” value ([7]; 500 g ai/ha) was 0 and the “Plant response rating (0 to 100), Goosegrass” value ([8]; 62 g ai/ha) was 0. For the same molecule, the “Plant response rating (0 to 100), Goosegrass” value ([8]; 125 g ai/ha) was 0, the “Plant response rating, Goosegrass” value ([8]; 250 g ai/ha) was 0 and the “Plant response rating, Goosegrass” value ([8]; 500 g ai/ha) was 5. For the same molecule, the “Plant response rating (0 to 100), Foxtail, Green” value ([9]; 62 g ai/ha) was 0, the “Plant response rating (0 to 100), Foxtail, Green” value ([9]; 125 g ai/ha) was 0 and the “Plant response rating, Foxtail, Green” value ([9]; 250 g ai/ha) was 0. For the same molecule, the “Plant response rating, Foxtail, Green” value ([9]; 500 g ai/ha) was 30, the “Plant response rating (0 to 100), Surinam Grass” value ([10]; 62 g ai/ha) was 0 and the “Plant response rating (0 to 100), Surinam Grass” value ([10]; 125 g ai/ha) was 0. The “Plant response rating, Surinam Grass” value ([10]; 250 g ai/ha) was 0, the “Plant response rating, Surinam Grass” value ([10]; 500 g ai/ha) was 0 and the “Plant response rating (0 to 100), Windgrass” value ([11]; 62 g ai/ha) was 0. For the same molecule, the “Plant response rating (0 to 100), Windgrass” value ([11]; 125 g ai/ha) was 0, the “Plant response rating, Windgrass” value ([11]; 250 g ai/ha) was 0 and the “Plant response rating, Windgrass” value ([11]; 500 g ai/ha) was 0. For the same molecule, the “Plant response rating (0 to 100), Barley” value ([12]; 62 g ai/ha) was 0, the “Plant response rating (0 to 100), Barley” value ([12]; 125 g ai/ha) was 0 and the “Plant response rating, Barley” value ([12]; 250 g ai/ha) was 0. For the same molecule, the “Plant response rating, Barley” value ([12]; 500 g ai/ha) was 0, the “Plant response rating (0 to 100), Cupgrass, Woolly” value ([13]; 62 g ai/ha) was 0 and the “Plant response rating (0 to 100), Cupgrass, Woolly” value ([13]; 125 g ai/ha) was 0. The “Plant response rating, Cupgrass, Woolly” value ([13]; 250 g ai/ha) was 0 and the “Plant response rating, Cupgrass, Woolly” value ([13]; 500 g ai/ha) was 0.
